Like-named read-outs stand apart in the source and are kept apart here. Where a SMILES comes first, the peptide text is derived from it.
Key:
MDREC 1229 [1] = type: cell-based, Escherichia coli
Protocol: (§1) Specifically, the strains described in [Table 2] were prepared and diluted with an MH medium such that the number of bacteria was 2×10^6 colony-forming units (CFUs) per 1 ml, 100 μl of the diluted strains was each aliquoted into a 96-well microtiter plate, and then 50 μl of a peptide solution diluted with the MH medium from the MIC value (solution diluted stepwise at 2: 1) was added to each well. Thereafter, the MIC value of each mixed solution was determined by diluting the antibiotic solution with the MH medium, adding 50 μl of the diluted solution to each well, and performing an experiment even under a reversed condition.

E. coli [2] = type: cell-based, Escherichia coli; conditions: E. coli
Protocol: as §1

MDRST 8009 = type: cell-based, Salmonella typhimurium; conditions: agent alone
Protocol: (§2) For the antibacterial activity, a minimal inhibitory concentration (MIC) of a peptide in which fungus bodies were not split in an MH medium with sufficient nutrients was measured.
(§3) Specifically, the strains described in the following [Table 2] were purchased and diluted with an MH medium such that the number of bacteria was 2×10^6 colony-forming units (CFUs), 100 μl of each of the diluted strains was aliquoted into a 96-well microtiter plate, and then 100 μl of a peptide solution diluted with the MH medium (solution diluted stepwise at 2: 1) was added to each well.

MDREC 1229 [3] = test: microbe, parasite or virus in culture; type: cell-based, Escherichia coli
Protocol: as §2, §3

E. coli [4] = test: microbe, parasite or virus in culture; type: cell-based, Escherichia coli; conditions: 16 h
Protocol: as §2, §3

MDRAB 12035 = test: MIC of antimicrobial peptide during combined treatment with antibiotic; type: cell-based, Acinetobacter baumannii
Protocol: as §1

A. baumannii = test: MIC of antibiotic during combined treatment with antimicrobial peptide; type: cell-based, Acinetobacter baumannii; conditions: for Antibiotic MIC, Erythromycin / Antibiotic MIC, Linezolid / Antibiotic MIC, Vancomycin: A. baumannii
Protocol: Thereafter, the MIC value of each mixed solution was determined by diluting the antibiotic solution with the MH medium, adding 50 μl of the diluted solution to each well, and performing an experiment even under a reversed condition.

[5] = linezolid 64 μg/ml (Conc./MIC 1/8)
[6] = linezolid 512 μg/ml (Conc./MIC 1)
[7] = vancomycin 512 μg/ml (Conc./MIC 1/2)
[8] = vancomycin 1024 μg/ml (Conc./MIC 1)
[9] = combined with peptide at 1 μg/ml
[10] = combined with peptide at 2 μg/ml
[11] = combined with peptide at 4 μg/ml
[12] = combined with peptide at 6 μg/ml
[13] = combined with peptide at 8 μg/ml
[14] = combined with peptide at 16 μg/ml
[15] = combined with peptide at 32 μg/ml

CC[C@H](C)[C@H](NC(=O)[C@H](CCCCN)NC(=O)[C@H](Cc1c[nH]c2ccccc12)NC(=O)[C@@H](N)CCCNC(=N)N)C(=O)N[C@@H](Cc1ccccc1)C(=O)N[C@@H](CCCCN)C(=O)N[C@@H](CCCCN)C(=O)N[C@H](C(=O)N1CCC[C@H]1C(=O)N[C@@H](CCCCN)C(=O)N[C@@H](CC(C)C)C(=O)N[C@@H](CC(C)C)C(=O)N[C@@H](Cc1c[nH]cn1)C(=O)N[C@@H](CCC(=O)O)C(=O)N[C@@H](Cc1ccccc1)C(=O)N[C@@H](CCCCN)C(=O)N[C@@H](CCCCN)C(=O)N[C@@H](Cc1ccccc1)C(N)=O)[C@@H](C)CC [PapMA-12, RWK IFK KIP KLL HEF KKF-NH2] (H-RWKIFKKIPKLLHEFKKF-NH2; N-terminus assumed)
0.25 µg/mL: Antibiotic MIC, Erythromycin (A. baumannii; [12])
2 µg/mL: Peptide MIC during treatment with antibiotic (MDREC 1229 [1]; erythromycin 32 μg/ml (Conc./MIC 1/8)) | Peptide MIC during treatment with antibiotic (MDREC 1229 [1]; erythromycin 64 μg/ml (Conc./MIC 1/4)) | Peptide MIC during treatment with antibiotic (MDREC 1229 [1]; linezolid […] (Conc./MIC 1/4)) | Peptide MIC during treatment with antibiotic (MDREC 1229 [1]; [7]) | Peptide MIC during treatment with erythromycin (MDRAB 12035; erythromycin 8 μg/ml (Conc./MIC 1/4)) | Peptide MIC during treatment with linezolid (MDRAB 12035; [5]) | Peptide MIC during treatment with vancomycin (MDRAB 12035; [7]) | Peptide MIC during treatment with vancomycin (MDRAB 12035; vancomycin […] (Conc./MIC 1/4)) | Peptide MIC during treatment with vancomycin (MDRAB 12035; vancomycin […] (Conc./MIC 1/8)) | Antibiotic MIC, Vancomycin (A. baumannii; [12])
64 µg/mL: Antibiotic MIC, Vancomycin (A. baumannii; [10])
4 µg/mL: Peptide MIC during treatment with antibiotic (MDREC 1229 [1]; [5]) | Peptide MIC during treatment with antibiotic (MDREC 1229 [1]; vancomycin […] (Conc./MIC 1/4)) | Peptide MIC during treatment with antibiotic (MDREC 1229 [1]; vancomycin […] (Conc./MIC 1/8)) | Peptide MIC during treatment with erythromycin (MDRAB 12035; erythromycin 4 μg/ml (Conc./MIC 1/8)) | Antibiotic MIC, Linezolid (A. baumannii; [11])
8 µg/mL: Minimal inhibitory concentration MIC (E. coli [4]) | Antibiotic MIC, Erythromycin (A. baumannii; [10]) | Antibiotic MIC, Vancomycin (A. baumannii; [11])
0 µg/mL: Peptide MIC during treatment with antibiotic (MDREC 1229 [1]; erythromycin […] (Conc./MIC 1)) | Peptide MIC during treatment with antibiotic (MDREC 1229 [1]; [6]) | Peptide MIC (E. coli [2]; with Erythromycin […] (Conc./MIC 1)) | Peptide MIC (E. coli [2]; with Linezolid […] (Conc./MIC 1)) | Peptide MIC (E. coli [2]; with Vancomycin 1024 μg/ml (Conc./MIC 1)) | Peptide MIC during treatment with erythromycin (MDRAB 12035; erythromycin 32 μg/ml (Conc./MIC 1)) | Peptide MIC during treatment with linezolid (MDRAB 12035; [6]) | Antibiotic MIC, Erythromycin (A. baumannii; [13]) | Antibiotic MIC, Linezolid (A. baumannii; [13]) | Antibiotic MIC, Vancomycin (A. baumannii; [13]) | Antibiotic MIC, Erythromycin (A. baumannii; [14]) | Antibiotic MIC, Linezolid (A. baumannii; [14]) | Antibiotic MIC, Vancomycin (A. baumannii; [14]) | Antibiotic MIC, Erythromycin (A. baumannii; [15]) | Antibiotic MIC, Linezolid (A. baumannii; [15]) | Antibiotic MIC, Vancomycin (A. baumannii; [15]) | Antibiotic MIC, Erythromycin (A. baumannii; combined with peptide at 64 μg/ml)
32 µg/mL: Minimal inhibitory concentration MIC (MDRST 8009) | Antibiotic MIC, Linezolid (A. baumannii; [10])
>128 µg/mL: Antibiotic MIC, Vancomycin (A. baumannii; [9])
128 µg/mL: Antibiotic MIC, Linezolid (A. baumannii; [9])
16 µg/mL: Minimal inhibitory concentration MIC (MDREC 1229 [3]) | Peptide MIC, peptide alone (MDREC 1229 [3]) | Antibiotic MIC, Erythromycin (A. baumannii; [9])
1 µg/mL: Peptide MIC during treatment with antibiotic (MDREC 1229 [1]; erythromycin […] (Conc./MIC 1/2)) | Peptide MIC during treatment with antibiotic (MDREC 1229 [1]; linezolid […] (Conc./MIC 1/2)) | Peptide MIC during treatment with antibiotic (MDREC 1229 [1]; [8]) | Peptide MIC during treatment with erythromycin (MDRAB 12035; erythromycin 16 μg/ml (Conc./MIC 1/2)) | Peptide MIC during treatment with linezolid (MDRAB 12035; linezolid […] (Conc./MIC 1/2)) | Peptide MIC during treatment with linezolid (MDRAB 12035; linezolid […] (Conc./MIC 1/4)) | Peptide MIC during treatment with vancomycin (MDRAB 12035; [8]) | Antibiotic MIC, Erythromycin (A. baumannii; [11]) | Antibiotic MIC, Linezolid (A. baumannii; [12])
higher level than the PapMA-1 peptide: Synergistic effect of antibacterial activity with existing antibiotics compared with PapMA-1 (A. baumannii; A. baumannii and MDRAB 12035)
